From the kinase profiling compilation of Christmann-Franck et al. (2016)

Columns and labels:
Experiment in all cases: radiometric filter-binding kinase assay, Kinase HotSpot
Details in all cases: compound 0.5 µM; ATP 10 µM
ABL1 (human) = ABL1 (human) (UniProt P00519)
ACVR1 (human) = ACVR1 (human) (UniProt Q04771)
ADRBK2 (human) = ADRBK2 (human) (UniProt P35626)
AKT3 (human) = AKT3 (human) (UniProt Q9Y243)
BLK (human) = BLK (human) (UniProt P51451)
BRSK1 (human) = BRSK1 (human) (UniProt Q8TDC3)
CAMK1G (human) = CAMK1G (human) (UniProt Q96NX5)
CDC42BPB (human) = CDC42BPB (human) (UniProt Q9Y5S2)
CDK3 CCNE1 (human) = CDK3 CCNE1 (human) (UniProt Q00526+P24864)
CDK5 CDK5R1 p25 (human) = CDK5 CDK5R1 p25 (human) (UniProt Q00535+Q15078)
CDK7 CCNH MNAT1 (human) = CDK7 CCNH MNAT1 (human) (UniProt P50613+P51948+P51946)
CSNK1D (human) = CSNK1D (human) (UniProt P48730)
CSNK1G2 (human) = CSNK1G2 (human) (UniProt P78368)
CSNK2A1 (human) = CSNK2A1 (human) (UniProt P68400)
DAPK3 (human) = DAPK3 (human) (UniProt O43293)
DYRK1A (human) = DYRK1A (human) (UniProt Q13627)
DYRK1B (human) = DYRK1B (human) (UniProt Q9Y463)
DYRK4 (human) = DYRK4 (human) (UniProt Q9NR20)
EPHA5 (human) = EPHA5 (human) (UniProt P54756)
EPHA7 (human) = EPHA7 (human) (UniProt Q15375)
FGFR4 (human) = FGFR4 (human) (UniProt P22455)
FLT3 (human) = FLT3 (human) (UniProt P36888)
GRK4 (human) = GRK4 (human) (UniProt P32298)
IGF1R (human) = IGF1R (human) (UniProt P08069)
MAP4K5 (human) = MAP4K5 (human) (UniProt Q9Y4K4)
MAPK11 (human) = MAPK11 (human) (UniProt Q15759)
MYLK2 (human) = MYLK2 (human) (UniProt Q9H1R3)
NEK2 (human) = NEK2 (human) (UniProt P51955)
NEK3 (human) = NEK3 (human) (UniProt P51956)
PBK (human) = PBK (human) (UniProt Q96KB5)
PLK3 (human) = PLK3 (human) (UniProt Q9H4B4)
PRKCB2 (human) = PRKCB2 (human) (UniProt P05771)
RIPK2 (human) = RIPK2 (human) (UniProt O43353)
ROS1 (human) = ROS1 (human) (UniProt P08922)
RPS6KA2 KD1 KD2 (human) = RPS6KA2 KD1 KD2 (human) (UniProt Q15349)
RPS6KA5 KD2 (human) = RPS6KA5 KD2 (human) (UniProt O75582)
SGK3 (human) = SGK3 (human) (UniProt Q96BR1)
SIK2 (human) = SIK2 (human) (UniProt Q9H0K1)
TSSK1B (human) = TSSK1B (human) (UniProt Q9BXA7)
WEE1 (human) = WEE1 (human) (UniProt P30291)
Sequence of WEE1 (human) (P30291 whole entry, looked up): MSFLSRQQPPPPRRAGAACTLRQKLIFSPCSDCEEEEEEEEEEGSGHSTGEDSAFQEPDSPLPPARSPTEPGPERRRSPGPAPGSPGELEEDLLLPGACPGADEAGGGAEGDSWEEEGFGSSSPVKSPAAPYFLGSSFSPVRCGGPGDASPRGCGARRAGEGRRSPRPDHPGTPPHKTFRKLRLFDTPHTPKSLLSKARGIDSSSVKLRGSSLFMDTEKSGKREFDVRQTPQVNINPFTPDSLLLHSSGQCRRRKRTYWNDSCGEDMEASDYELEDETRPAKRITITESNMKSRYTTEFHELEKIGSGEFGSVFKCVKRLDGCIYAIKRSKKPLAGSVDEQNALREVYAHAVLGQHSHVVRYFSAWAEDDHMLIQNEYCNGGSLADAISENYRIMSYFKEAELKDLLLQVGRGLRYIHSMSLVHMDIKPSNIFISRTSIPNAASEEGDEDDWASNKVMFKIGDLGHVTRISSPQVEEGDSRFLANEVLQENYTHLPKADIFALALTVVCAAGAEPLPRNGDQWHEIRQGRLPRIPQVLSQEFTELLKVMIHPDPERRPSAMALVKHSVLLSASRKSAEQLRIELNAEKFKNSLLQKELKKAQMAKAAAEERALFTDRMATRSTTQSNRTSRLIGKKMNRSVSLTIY

Sequence of ACVR1 (human) (Q04771 whole entry, looked up): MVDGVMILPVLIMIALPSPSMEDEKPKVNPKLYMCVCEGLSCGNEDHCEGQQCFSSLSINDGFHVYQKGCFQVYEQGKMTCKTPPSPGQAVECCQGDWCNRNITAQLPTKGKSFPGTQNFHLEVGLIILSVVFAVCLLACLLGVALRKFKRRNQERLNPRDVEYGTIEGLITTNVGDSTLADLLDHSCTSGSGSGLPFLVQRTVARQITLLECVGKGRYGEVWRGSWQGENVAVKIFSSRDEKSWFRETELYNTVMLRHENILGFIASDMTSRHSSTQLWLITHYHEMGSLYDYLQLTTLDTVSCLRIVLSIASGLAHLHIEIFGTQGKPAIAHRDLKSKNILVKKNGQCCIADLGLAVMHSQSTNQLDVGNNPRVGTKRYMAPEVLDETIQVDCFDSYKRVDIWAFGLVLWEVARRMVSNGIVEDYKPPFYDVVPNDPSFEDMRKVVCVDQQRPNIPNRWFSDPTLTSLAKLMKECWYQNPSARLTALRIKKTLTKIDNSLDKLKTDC
Sequence of DAPK3 (human) (O43293 whole entry, looked up): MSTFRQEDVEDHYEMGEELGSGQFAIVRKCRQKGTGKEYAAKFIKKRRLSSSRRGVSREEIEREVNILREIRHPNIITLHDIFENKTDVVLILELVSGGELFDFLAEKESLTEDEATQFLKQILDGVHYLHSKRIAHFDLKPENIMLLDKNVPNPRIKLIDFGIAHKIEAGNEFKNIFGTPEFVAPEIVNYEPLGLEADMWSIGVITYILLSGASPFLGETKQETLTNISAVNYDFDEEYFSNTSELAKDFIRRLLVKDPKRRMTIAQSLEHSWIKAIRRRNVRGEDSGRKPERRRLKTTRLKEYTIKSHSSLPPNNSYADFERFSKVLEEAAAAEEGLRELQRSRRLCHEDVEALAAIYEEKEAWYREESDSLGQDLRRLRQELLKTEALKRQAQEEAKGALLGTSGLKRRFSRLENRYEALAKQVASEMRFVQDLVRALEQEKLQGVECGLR
Sequence of CSNK1D (human) (P48730 whole entry, looked up): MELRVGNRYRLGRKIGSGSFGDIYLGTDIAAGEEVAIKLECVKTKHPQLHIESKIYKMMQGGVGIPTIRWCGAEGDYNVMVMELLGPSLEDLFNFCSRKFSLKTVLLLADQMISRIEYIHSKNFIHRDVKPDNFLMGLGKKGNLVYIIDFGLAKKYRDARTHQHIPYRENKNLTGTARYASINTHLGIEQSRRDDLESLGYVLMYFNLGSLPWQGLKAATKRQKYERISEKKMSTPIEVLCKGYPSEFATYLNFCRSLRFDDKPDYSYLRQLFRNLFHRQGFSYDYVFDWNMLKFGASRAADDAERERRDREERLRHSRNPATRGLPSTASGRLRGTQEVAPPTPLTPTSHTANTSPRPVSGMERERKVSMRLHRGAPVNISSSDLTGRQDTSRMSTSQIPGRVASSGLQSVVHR
Sequence of FLT3 (human) (P36888 whole entry, looked up): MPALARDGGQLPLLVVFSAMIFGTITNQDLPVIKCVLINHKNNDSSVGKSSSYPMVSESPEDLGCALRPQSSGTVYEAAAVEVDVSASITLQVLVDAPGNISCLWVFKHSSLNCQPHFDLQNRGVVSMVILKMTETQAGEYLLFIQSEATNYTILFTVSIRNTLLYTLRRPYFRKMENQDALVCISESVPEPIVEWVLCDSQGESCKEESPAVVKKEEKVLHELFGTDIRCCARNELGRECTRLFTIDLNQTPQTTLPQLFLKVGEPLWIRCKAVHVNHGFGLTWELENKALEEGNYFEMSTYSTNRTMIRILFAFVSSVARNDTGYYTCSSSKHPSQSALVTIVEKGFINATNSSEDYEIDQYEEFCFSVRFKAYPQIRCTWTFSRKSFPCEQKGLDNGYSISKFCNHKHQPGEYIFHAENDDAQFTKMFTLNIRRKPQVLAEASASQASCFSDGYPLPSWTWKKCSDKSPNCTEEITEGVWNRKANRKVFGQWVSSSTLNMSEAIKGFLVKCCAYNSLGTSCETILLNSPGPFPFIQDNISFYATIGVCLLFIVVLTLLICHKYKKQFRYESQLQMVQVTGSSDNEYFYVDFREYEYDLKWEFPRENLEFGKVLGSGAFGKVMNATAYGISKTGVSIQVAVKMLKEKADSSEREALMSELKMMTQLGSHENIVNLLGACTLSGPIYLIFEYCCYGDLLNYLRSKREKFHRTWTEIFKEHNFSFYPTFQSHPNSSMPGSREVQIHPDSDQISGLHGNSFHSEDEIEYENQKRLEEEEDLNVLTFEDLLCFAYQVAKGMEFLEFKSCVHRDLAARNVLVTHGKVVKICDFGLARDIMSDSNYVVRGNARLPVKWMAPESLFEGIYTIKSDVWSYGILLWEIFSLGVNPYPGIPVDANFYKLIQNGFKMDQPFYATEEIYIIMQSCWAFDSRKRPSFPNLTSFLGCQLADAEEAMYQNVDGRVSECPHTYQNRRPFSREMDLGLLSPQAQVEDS
Sequence of NEK3 (human) (P51956 whole entry, looked up): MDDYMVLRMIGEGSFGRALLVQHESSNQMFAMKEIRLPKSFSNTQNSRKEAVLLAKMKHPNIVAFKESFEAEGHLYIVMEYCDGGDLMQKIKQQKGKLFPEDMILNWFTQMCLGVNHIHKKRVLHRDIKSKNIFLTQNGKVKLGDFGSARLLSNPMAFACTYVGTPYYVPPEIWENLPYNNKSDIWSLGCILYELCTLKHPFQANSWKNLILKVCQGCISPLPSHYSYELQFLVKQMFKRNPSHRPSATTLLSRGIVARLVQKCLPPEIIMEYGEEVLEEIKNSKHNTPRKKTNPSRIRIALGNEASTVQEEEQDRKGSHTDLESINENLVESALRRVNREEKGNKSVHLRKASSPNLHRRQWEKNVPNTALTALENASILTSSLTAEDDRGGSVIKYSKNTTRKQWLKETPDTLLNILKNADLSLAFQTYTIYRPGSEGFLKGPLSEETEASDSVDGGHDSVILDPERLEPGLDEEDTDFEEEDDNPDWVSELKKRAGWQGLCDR
Sequence of CDK7 CCNH MNAT1 (human) (P50613 whole entry, looked up): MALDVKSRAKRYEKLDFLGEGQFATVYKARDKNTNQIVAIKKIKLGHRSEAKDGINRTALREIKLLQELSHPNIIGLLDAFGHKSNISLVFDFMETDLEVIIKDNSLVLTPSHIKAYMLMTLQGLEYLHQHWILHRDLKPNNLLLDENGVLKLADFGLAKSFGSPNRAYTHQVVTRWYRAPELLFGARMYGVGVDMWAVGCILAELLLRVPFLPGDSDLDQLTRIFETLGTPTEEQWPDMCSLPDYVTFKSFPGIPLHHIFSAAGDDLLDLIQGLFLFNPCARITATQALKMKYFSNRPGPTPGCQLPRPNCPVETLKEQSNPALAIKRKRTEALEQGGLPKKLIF
Sequence of CDK7 CCNH MNAT1 (human) (P51946 whole entry, looked up): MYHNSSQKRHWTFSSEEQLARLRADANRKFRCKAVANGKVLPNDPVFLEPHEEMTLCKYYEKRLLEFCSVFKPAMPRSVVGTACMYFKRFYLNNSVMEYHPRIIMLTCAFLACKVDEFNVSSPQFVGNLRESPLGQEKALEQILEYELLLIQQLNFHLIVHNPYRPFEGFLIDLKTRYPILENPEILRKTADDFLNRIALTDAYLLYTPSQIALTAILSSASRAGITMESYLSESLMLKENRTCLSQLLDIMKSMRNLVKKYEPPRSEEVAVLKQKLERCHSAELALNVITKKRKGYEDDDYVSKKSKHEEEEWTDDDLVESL
Sequence of CDK7 CCNH MNAT1 (human) (P51948 whole entry, looked up): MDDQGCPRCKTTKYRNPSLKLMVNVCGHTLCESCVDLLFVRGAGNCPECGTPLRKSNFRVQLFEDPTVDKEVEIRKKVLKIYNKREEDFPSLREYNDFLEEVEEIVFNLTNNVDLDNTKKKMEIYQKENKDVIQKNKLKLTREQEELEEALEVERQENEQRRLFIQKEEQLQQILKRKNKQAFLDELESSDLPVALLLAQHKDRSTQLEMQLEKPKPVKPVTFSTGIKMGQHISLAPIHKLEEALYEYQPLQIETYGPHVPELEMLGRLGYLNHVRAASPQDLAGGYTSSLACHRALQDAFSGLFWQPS
Sequence of PBK (human) (Q96KB5 whole entry, looked up): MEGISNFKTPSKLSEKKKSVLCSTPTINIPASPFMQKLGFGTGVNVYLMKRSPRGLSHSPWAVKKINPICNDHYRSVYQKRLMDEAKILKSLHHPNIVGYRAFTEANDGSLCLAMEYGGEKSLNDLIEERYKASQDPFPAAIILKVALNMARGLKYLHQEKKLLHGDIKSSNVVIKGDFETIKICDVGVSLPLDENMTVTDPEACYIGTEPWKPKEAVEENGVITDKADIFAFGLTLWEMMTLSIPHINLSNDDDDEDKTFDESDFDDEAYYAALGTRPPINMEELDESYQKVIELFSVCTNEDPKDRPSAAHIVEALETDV

Row | Structure (SMILES) | residual activity (ABL1 (human)) | residual activity (ACVR1 (human)) | residual activity (ADRBK2 (human)) | residual activity (AKT3 (human)) | residual activity (BLK (human)) | residual activity (BRSK1 (human)) | residual activity (CAMK1G (human)) | residual activity (CDC42BPB (human)) | residual activity (CDK3 CCNE1 (human)) | residual activity (CDK5 CDK5R1 p25 (human)) | residual activity (CDK7 CCNH MNAT1 (human)) | residual activity (CSNK1D (human)) | residual activity (CSNK1G2 (human)) | residual activity (CSNK2A1 (human)) | residual activity (DAPK3 (human)) | residual activity (DYRK1A (human)) | residual activity (DYRK1B (human)) | residual activity (DYRK4 (human)) | residual activity (EPHA5 (human)) | residual activity (EPHA7 (human)) | also measured
1 | CC[n+]1c(/C=C/N(C)c2ccccc2)n(-c2ccccc2)c2ccc(-c3nc4ccccc4s3)cc21 | 96.7% | 103% | 97.4% | 109% | 99.1% | 101% | 101% | 95% | 92.2% | 103% | 97.8% | 104% | 101% | 96.8% | 95.4% | 96.7% | 101% | 107% | 100% | 97.9% | residual activity (FGFR4 (human)): 84.1%; residual activity (FLT3 (human)): 98.6%; residual activity (GRK4 (human)): 103%; residual activity (IGF1R (human)): 93%; residual activity (MAP4K5 (human)): 91.7%; residual activity (MAPK11 (human)): 101%; residual activity (MYLK2 (human)): 95.8%; residual activity (NEK2 (human)): 100%; residual activity (NEK3 (human)): 102%; residual activity (PBK (human)): 107%; residual activity (PLK3 (human)): 104%; residual activity (PRKCB2 (human)): 118%; residual activity (RIPK2 (human)): 88.6%; residual activity (ROS1 (human)): 99.1%; residual activity (RPS6KA2 KD1 KD2 (human)): 101%; residual activity (RPS6KA5 KD2 (human)): 111%; residual activity (SGK3 (human)): 102%; residual activity (SIK2 (human)): 112%; residual activity (TSSK1B (human)): 102%; residual activity (WEE1 (human)): 92.4%
2 | Cc1ccc(NC2=CC(=O)c3sc(C)nc3C2=O)cc1 | 90.8% | 99.1% | 84.5% | 92.8% | 95.4% | 88.6% | 95% | 109% | 88.5% | 61.9% | 95.4% | 101% | 99.9% | 98.2% | 104% | 103% | 94.6% | 97.9% | 98.2% | 92.3% | residual activity (FGFR4 (human)): 86.7%; residual activity (FLT3 (human)): 72.5%; residual activity (GRK4 (human)): 93.1%; residual activity (IGF1R (human)): 92.2%; residual activity (MAP4K5 (human)): 96.9%; residual activity (MAPK11 (human)): 102%; residual activity (MYLK2 (human)): 92.8%; residual activity (NEK2 (human)): 96.4%; residual activity (NEK3 (human)): 88.2%; residual activity (PBK (human)): 85.8%; residual activity (PLK3 (human)): 94.5%; residual activity (PRKCB2 (human)): 93.8%; residual activity (RIPK2 (human)): 95.2%; residual activity (ROS1 (human)): 107%; residual activity (RPS6KA2 KD1 KD2 (human)): 82.5%; residual activity (RPS6KA5 KD2 (human)): 87.7%; residual activity (SGK3 (human)): 95.2%; residual activity (SIK2 (human)): 118%; residual activity (TSSK1B (human)): 115%; residual activity (WEE1 (human)): 107%
3 | CC(=O)c1ccc(N2CCOCC2)cc1O | 98.9% | 107% | 89.1% | 107% | 102% | 97.6% | 101% | 87.2% | 102% | 99.7% | 105% | 100% | 102% | 101% | 98.1% | 98% | 99.9% | 95.6% | 109% | 95.5% | residual activity (FGFR4 (human)): 108%; residual activity (FLT3 (human)): 102%; residual activity (GRK4 (human)): 106%; residual activity (IGF1R (human)): 106%; residual activity (MAP4K5 (human)): 102%; residual activity (MAPK11 (human)): 99.8%; residual activity (MYLK2 (human)): 98.6%; residual activity (NEK2 (human)): 81.3%; residual activity (NEK3 (human)): 103%; residual activity (PBK (human)): 113%; residual activity (PLK3 (human)): 98.1%; residual activity (PRKCB2 (human)): 97.9%; residual activity (RIPK2 (human)): 103%; residual activity (ROS1 (human)): 102%; residual activity (RPS6KA2 KD1 KD2 (human)): 98.6%; residual activity (RPS6KA5 KD2 (human)): 105%; residual activity (SGK3 (human)): 105%; residual activity (SIK2 (human)): 87%; residual activity (TSSK1B (human)): 107%; residual activity (WEE1 (human)): 97.5%
4 | c1ccc(-c2n[nH]c3c2oc2ccccc23)cc1 | 99.6% | 99.4% | 119% | 84.4% | 88.9% | 92.4% | 100% | 99% | 90% | 99% | 101% | 93.1% | 86.4% | 87.2% | 91.5% | 114% | 101% | 99.7% | 92.1% | 104% | residual activity (FGFR4 (human)): 85.5%; residual activity (FLT3 (human)): 12.1%; residual activity (GRK4 (human)): 110%; residual activity (IGF1R (human)): 98.1%; residual activity (MAP4K5 (human)): 36.6%; residual activity (MAPK11 (human)): 95.7%; residual activity (MYLK2 (human)): 66.6%; residual activity (NEK2 (human)): 99.8%; residual activity (NEK3 (human)): 98.9%; residual activity (PBK (human)): 94.8%; residual activity (PLK3 (human)): 99.2%; residual activity (PRKCB2 (human)): 113%; residual activity (RIPK2 (human)): 78.8%; residual activity (ROS1 (human)): 107%; residual activity (RPS6KA2 KD1 KD2 (human)): 77.5%; residual activity (RPS6KA5 KD2 (human)): 94.9%; residual activity (SGK3 (human)): 111%; residual activity (SIK2 (human)): 98.3%; residual activity (TSSK1B (human)): 97.2%; residual activity (WEE1 (human)): 92.6%
5 | COc1ccc(COc2ccc(Cc3cnc(N)nc3N)cc2OC)cc1 | 102% | 100% | 103% | 96.5% | 98.6% | 95.6% | 98.3% | 96.9% | 82.9% | 103% | 100% | 98.5% | 101% | 105% | 104% | 88.1% | 104% | 101% | 111% | 101% | residual activity (FGFR4 (human)): 99.7%; residual activity (FLT3 (human)): 103%; residual activity (GRK4 (human)): 106%; residual activity (IGF1R (human)): 123%; residual activity (MAP4K5 (human)): 97.4%; residual activity (MAPK11 (human)): 98.7%; residual activity (MYLK2 (human)): 104%; residual activity (NEK2 (human)): 99.2%; residual activity (NEK3 (human)): 98.1%; residual activity (PBK (human)): 99.4%; residual activity (PLK3 (human)): 95.9%; residual activity (PRKCB2 (human)): 110%; residual activity (RIPK2 (human)): 81.9%; residual activity (ROS1 (human)): 99.9%; residual activity (RPS6KA2 KD1 KD2 (human)): 105%; residual activity (RPS6KA5 KD2 (human)): 103%; residual activity (SGK3 (human)): 105%; residual activity (SIK2 (human)): 98.6%; residual activity (TSSK1B (human)): 95.2%; residual activity (WEE1 (human)): 90.3%
